In general, Ki refers to a measure of affinity in units of concentration, obtained from inhibition or displacement. A low value points to a stronger hold on the target.

For this assay, the target named is T1, IRI1/LHT1 (Arabidopsis thaliana, UniProt Q9FKS8).
T1 sequence (Q9FKS8 1-446): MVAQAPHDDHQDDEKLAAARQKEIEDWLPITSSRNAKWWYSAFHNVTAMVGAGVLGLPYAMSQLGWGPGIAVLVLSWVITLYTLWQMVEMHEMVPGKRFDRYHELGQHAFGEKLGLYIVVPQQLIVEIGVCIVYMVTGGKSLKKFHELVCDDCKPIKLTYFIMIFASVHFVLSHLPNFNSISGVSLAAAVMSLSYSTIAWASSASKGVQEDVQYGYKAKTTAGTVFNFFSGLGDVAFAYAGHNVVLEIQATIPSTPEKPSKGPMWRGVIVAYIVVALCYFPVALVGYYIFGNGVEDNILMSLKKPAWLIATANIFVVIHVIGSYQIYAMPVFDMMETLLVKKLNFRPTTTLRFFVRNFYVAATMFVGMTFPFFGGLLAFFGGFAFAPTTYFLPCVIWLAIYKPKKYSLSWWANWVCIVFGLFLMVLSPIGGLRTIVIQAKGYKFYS
The assay can be described thus: inhibition of […]-L-Ala uptake in yeast. It is filed as cell-based.

Molecule `CC(N)CC(=O)O` (racemic) [BABA, β-amino butyric acid] yielded a Ki of 24.7 µM. On to `N[C@@H](CO)CC(=O)O` [RBH, R-β-homoserine], for which the affinity, expressed as Ki, was 39.2 µM.
